# Like-named read-outs stand apart in the source and are kept apart here. Where no end group is shown, it is not given here.
# Test system: human kidney cancer cell line (CAKI2)
# Assay type: cell-based
# Conditions: for Cell Viability (%): human, 48 h
# Description: The antitumor activity of each sample peptide synthesized in above-mentioned Test Example 1 was evaluated targeted in human-derived cultured tumor cells. More specifically, a human kidney cancer cell line (CAKI2) that is currently commercially available was used for the test tumor cells. CAKI2 cells were cultured and adjusted to cell count of about 5×10^3 cells per single well of 96-well plate. The amount of medium at this time was made to be 100 μL per well. Next, the 96-well plate was arranged in a CO2 incubator and incubated for about 1 day (21 hours to 24 hours) under conditions of 37° C. and 5% CO2. Subsequently, peptide-containing test media were respectively prepared for each concentration so that the concentration of each sample peptide targeted for evaluation was 12.5 μM and 25 μM followed by supplying to the wells in which the cells targeted for evaluation were cultured (namely, the wells following the above-mentioned incubation) so that the amount of media was 90 μL per well. The 96-well plate was then returned to CO2 incubator followed by incubating for 48 hours under conditions of 37° C. and 5% CO2. The number of wells (n) at each concentration in each peptide addition test group was set to 3. Thus, the values of the results indicated in the following table are the average values of the results respectively obtained for 3 test wells. Cell viability (%) was determined in the manner described below. Following completion of incubation for 48 hours as described above, the medium in each well was replaced with 100 μL of fresh medium not containing peptide followed by further adding a reagent for measuring cell proliferation in the form of “Cell Counting Kit-8” (Dojindo Laboratories) containing “water-soluble tetrazolium salt (WST-8)” as a coloring reagent at 10 μL per well. Subsequently, the 96-well plate was again returned to CO2 incubator and incubated for 1.5 hours to 2 hours under conditions of 37° C. and 5% CO2. Following completion of incubation, cell viability (%) was evaluated using a colorimetric method consisting of recovering the cell culture liquid containing the above-mentioned reagent together with measuring absorbance at wavelength of 450 nm based on reduction of tetrazolium salt (value corrected for absorbance at a wavelength of 650 nm: A450 to A650). More specifically, the cell viability (%) of each test cell line was calculated from the measured absorbance as a relative value based on cell viability of 100% for the measured value (measured absorbance) of the comparison test group that underwent incubation for 48 hours as described above in only medium not containing peptide. McCoy's 5A medium (Gibco) containing 2 mM L-glutamine, 3,000 mg/L of glucose, 100 units/mL of penicillin, 100 μg/mL of streptomycin and 10% fetal bovine serum (FBS).
substance,measurement,setting,value
FIGNLALSDLLAGVAYTANLLLKKRTLRKNDRKKR-NH2 [Sample 2],antitumor activity (tumor cell proliferation inhibitory activity),"CAKI2 cells, result in words, among Samples 1 to 7",superior antitumor activity
same,Cell Viability (%),12.5 μM,9.2%
same,Cell Viability (%),25 μM,0.4%

# — patent US11339203B2, “Antitumor peptide and use thereof” (TOAGOSEI CO., LTD., priority 2018, dated 2022)
